Measured values: PMC12169608, “Peptidomimetic Phenoxymethyl Ketone Warheads as Potent Dual-Mode Inhibitors against SARS-CoV‑2 M^pro and Cathepsin” (Journal of Medicinal Chemistry, 2025)

Biological target: SARS-CoV-2 main protease (Mpro) (Severe acute respiratory syndrome coronavirus 2, UniProt P0DTD1)
Test: cell-based

| Compound | EC50 | M^pro reporter assay pEC50 |
| --- | --- | --- |
| COc1cccc2[nH]c(C(=O)N[C@@H](Cc3cccc(F)c3)C(=O)N[C@@H](C[C@@H]3CCNC3=O)C(=O)COc3c(F)c(F)c(CO)c(F)c3F)cc12 [compound 1, N-((S)-3-(3-Fluorophenyl)-1-oxo-1-(((S)-3-oxo-1-((S)-2-oxopyrrolidin-3-yl)-4-(2,3,5,6-tetrafluoro-4-(hydroxymethyl)phenoxy)butan-2-yl)amino)propan-2-yl)-4-methoxy-1H-indole-2-carboxamide] | 105 nM | – |
| COc1cccc2[nH]c(C(=O)N[C@H](Cc3cccc(F)c3)C(=O)N[C@@H](C[C@@H]3CCNC3=O)C(=O)COc3c(F)c(F)c(CO)c(F)c3F)cc12 [compound 2, N-((R)-3-(3-Fluorophenyl)-1-oxo-1-(((S)-3-oxo-1-((S)-2-oxopyrrolidin-3-yl)-4-(2,3,5,6-tetrafluoro-4-(hydroxymethyl)phenoxy)butan-2-yl)amino)propan-2-yl)-4-methoxy-1H-indole-2-carboxamide] | 18600 nM | – |
| CCCCCCCCCCCCCCCC(=O)N[C@@H](Cc1cccc(F)c1)C(=O)N[C@@H](C[C@@H]1CCNC1=O)C(=O)COc1c(F)c(F)c(CO)c(F)c1F [compound 4, N-((S)-3-(3-Fluorophenyl)-1-oxo-1-(((S)-3-oxo-1-((S)-2-oxopyrrolidin-3-yl)-4-(2,3,5,6-tetrafluoro-4-(hydroxymethyl)phenoxy)butan-2-yl)amino)propan-2-yl)palmitamide] | > 50100 nM | – |
| O=C(N[C@@H](Cc1c[nH]c2ccccc12)C(=O)N[C@@H](C[C@@H]1CCNC1=O)C(=O)COc1c(F)c(F)c(CO)c(F)c1F)c1cc2ccccc2[nH]1 [compound 5, N-((S)-3-(1H-Indol-3-yl)-1-oxo-1-(((S)-3-oxo-1-((S)-2-oxopyrrolidin-3-yl)-4-(2,3,5,6-tetrafluoro-4-(hydroxymethyl)phenoxy)butan-2-yl)amino)propan-2-yl)-1H-indole-2-carboxamide] | 2880 nM | – |
| COc1cccc2[nH]c(C(=O)N[C@@H](Cc3cccc(F)c3)C(=O)N[C@@H](C[C@@H]3CCNC3=O)C(=O)COc3c(F)c(F)c(C(C)O)c(F)c3F)cc12 (stereo partly drawn) [compound 8, N-((2S)-3-(3-Fluorophenyl)-1-oxo-1-(((2S)-3-oxo-1-((S)-2-oxopyrrolidin-3-yl)-4-(2,3,5,6-tetrafluoro-4-(1-hydroxyethyl)phenoxy)butan-2-yl)amino)propan-2-yl)-4-methoxy-1H-indole-2-carboxamide] | 8.71 nM | – |
| COc1cccc2[nH]c(C(=O)N[C@@H](Cc3cccc(F)c3)C(=O)N[C@@H](C[C@@H]3CCNC3=O)C(=O)COc3c(F)c(F)c(C(C)(C)O)c(F)c3F)cc12 [compound 10, N-((S)-3-(3-Fluorophenyl)-1-oxo-1-(((S)-3-oxo-1-((S)-2-oxopyrrolidin-3-yl)-4-(2,3,5,6-tetrafluoro-4-(2-hydroxypropan-2-yl)phenoxy)butan-2-yl)amino)propan-2-yl)-4-methoxy-1H-indole-2-carboxamide] | 4.68 nM | – |
| COc1cccc2[nH]c(C(=O)N[C@@H](Cc3cccc(F)c3)C(=O)N[C@@H](C[C@@H]3CC(=O)NC3=O)C(=O)COc3c(F)c(F)c(C(C)(C)O)c(F)c3F)cc12 [compound 11] | 1230 nM | – |
| COc1cccc2[nH]c(C(=O)N[C@@H](Cc3cccc(F)c3)C(=O)N[C@@H](C[C@@H]3CCNC3=O)C(=O)COc3c(F)c(F)c(F)c(F)c3F)cc12 [compound 16, reference compound] | < 3.02 nM | – |
| N-((S)-3-(3-Fluorophenyl)-1-oxo-1-(((S)-2-oxo-5-(5-oxo-1,5-dihydro-4H-1,2,4-triazol-4-yl)-1-(2,3,5,6-tetrafluoro-4-(2-hydroxypropan-2-yl)phenoxy)pentan-3-yl)amino)propan-2-yl)-4-methoxy-1H-indole-2-carboxamide [compound 12] | – | 4.66 |
